Consider eleven molecules from ChEMBL document CHEMBL1147010, “Aziridine-2,3-dicarboxylate inhibitors targeting the major cysteine protease of Trypanosoma brucei as lead trypanocidal agents” (Bioorg Med Chem Lett, 2006).

In assay [1] the test system is J774. Description: Selectivity index, IC50 for J774.1/IC50 for Trypanosoma brucei brucei. In kind it is functional.
Assay [2] deals with Rhodesain (Trypanosoma brucei rhodesiense) (UniProt Q95PM0). The experiment in a line: Inhibition of Trypanosoma brucei rhodesiense rhodesain at 200 uM.
The subject of assay [3] is Trypanosoma brucei brucei. Description: Trypanocidal activity against Trypanosoma brucei brucei after 48 hrs. It counts as functional, organism-based.
For assay [4], the system named is J774. Description: Cytotoxicity against J774.1 cell line after 48 hrs. In kind it is functional, cell-based. To be noted: Mus musculus, J774, 48 h.
The target in assay [5] is T1, Rhodesain (Trypanosoma brucei rhodesiense, UniProt Q95PM0). The experiment in a line: Inhibition of Trypanosoma brucei rhodesiense rhodesain.
Assay [6] deals with T1, Rhodesain. The experiment in a line: Inhibition of Trypanosoma brucei rhodesiense rhodesain in presence of 31.6 uM substrate Cbz-Phe-Arg-AMC.
The target in assay [7] is Rhodesain (Trypanosoma brucei rhodesiense) (UniProt Q95PM0). Description: Inhibition of Trypanosoma brucei rhodesiense rhodesain at 140 uM.
For assay [8], the system named is J774. The experiment in a line: Cytotoxicity against J774.1 cell line after 72 hrs. In kind it is functional, cell-based. To be noted: Mus musculus, J774, 72 h.

As usually defined, the inhibition is the relative decrease from the control value, in per cent. The term pIC50 denotes −log10 of the IC50, conventionally taken in molar units. Low readings indicate a high IC50, high ones a low IC50. The term MIC denotes the lowest concentration that inhibits growth of the organism. A lower MIC goes with greater potency. By pKi is commonly meant the negative decadic logarithm of the Ki, by convention in mol/L.

The structures appear in SMILES notation. pIC50, pKi: −log10 of the molar value. Activity calls are given as the source filed them. The calls are words filed in the database; no cut-off is given here.

Sequence of Rhodesain (Trypanosoma brucei rhodesiense) (Q95PM0 1-450): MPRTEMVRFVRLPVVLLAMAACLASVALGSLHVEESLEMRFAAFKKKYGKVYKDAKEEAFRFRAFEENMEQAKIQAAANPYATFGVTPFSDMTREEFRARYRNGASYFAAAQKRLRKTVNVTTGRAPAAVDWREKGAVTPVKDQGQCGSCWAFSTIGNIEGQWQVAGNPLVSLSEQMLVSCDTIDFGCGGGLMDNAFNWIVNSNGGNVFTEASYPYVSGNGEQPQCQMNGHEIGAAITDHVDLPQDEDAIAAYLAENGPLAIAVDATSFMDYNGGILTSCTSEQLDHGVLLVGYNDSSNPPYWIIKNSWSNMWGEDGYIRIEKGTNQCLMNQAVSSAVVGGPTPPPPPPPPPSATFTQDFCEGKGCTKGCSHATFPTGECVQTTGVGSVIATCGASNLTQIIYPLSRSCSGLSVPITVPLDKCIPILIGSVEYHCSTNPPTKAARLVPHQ
T1 sequence (Q95PM0 whole entry): as the sequence (Q95PM0 1-450) above

Regarding `Nc1nc(N)nc(Nc2ccc([As]3SCC(CO)S3)cc2)n1` (stereo not drawn) [MELARSOPROL], the “Ratio IC50” value in the assay with J774 [1] was 1653. This molecule also came in with an inhibition in assay [2] of 94.3%. The pIC50 in assay [3] was 8.59; with J774 [4], 5.37.
Regarding `Cl.NCCCC(N)(C(=O)O)C(F)F.O` (stereo not drawn) [EFLORNITHINE HYDROCHLORIDE], the “Ratio IC50” value with J774 [1] is listed as over 44. The same molecule had an inhibition in assay [2] of 30.7%. The same molecule yielded an MIC in assay [3] of over 1000 µM. For the same molecule, the pIC50 in the assay on J774 [4] was under 3.00.
As to `CCOC(=O)[C@@H]1[C@@H](C(=O)OCC)N1C(=O)[C@@H]1CN1C(=O)[C@H](CC(C)C)NC(=O)OC(C)(C)C`, the “Ratio IC50” value with J774 [1] is on record as 1.9. The pKi was 6.52 on Rhodesain [5] and 6.44 on Rhodesain [6]. The pIC50 in assay [3] is 4.59; in the assay on J774 [4], 4.30.
On to `CC(C)C[C@H](NC(=O)OC(C)(C)C)C(=O)N1CCC[C@@H](C(=O)N2[C@H](C(=O)O)[C@H]2C(=O)O)C1`, for which the inhibition result in assay [7] was “inactive”.
The same measure, in the same setting: the same measure for `CC(C)C[C@@H](NC(=O)OC(C)(C)C)C(=O)N1CCC[C@@H](C(=O)N2[C@H](C(=O)O)[C@H]2C(=O)O)C1`: “inactive”; for `CC(C)C[C@H](NC(=O)OC(C)(C)C)C(=O)N1CCC[C@H](C(=O)N2[C@H](C(=O)O)[C@H]2C(=O)O)C1`: “inactive”.
On the same count and under the same terms, the entry for `CC(C)(C)OC(=O)NCC(=O)N1CCC[C@@H](C(=O)N2[C@H](C(=O)O)[C@H]2C(=O)O)C1` is “inactive”.
As to `C[C@H](NC(=O)[C@@H](Cc1ccccc1)NC(=O)OC(C)(C)C)C(=O)N1[C@H](C(=O)OCc2ccccc2)[C@H]1C(=O)OCc1ccccc1`, in the assay on J774 [1], the “Ratio IC50” value is 1.3. For the same molecule, the inhibition result in assay [7] was “inactive”. The pIC50 is 4.46 in assay [3] and 4.36 in the assay with J774 [8].
`Cc1ccc(C(=O)Nc2ccc(S(=O)(=O)[O-])c3cc(S(=O)(=O)[O-])cc(S(=O)(=O)[O-])c23)cc1NC(=O)c1cccc(NC(=O)Nc2cccc(C(=O)Nc3cc(C(=O)Nc4ccc(S(=O)(=O)[O-])c5cc(S(=O)(=O)[O-])cc(S(=O)(=O)[O-])c45)ccc3C)c2)c1.[Na+].[Na+].[Na+].[Na+].[Na+].[Na+]` [SURAMIN HEXASODIUM]: in the assay on J774 [1], the “Ratio IC50” value was over 3225. In assay [2], the inhibition worked out at 31.5%. In assay [3], this molecule showed a pIC50 of 6.51 and an MIC of 1 µM. In addition, in the assay on J774 [4], the pIC50 is under 3.00.
Turning to `N=C(N)c1ccc(OCCCCCOc2ccc(C(=N)N)cc2)cc1.O=S(=O)(O)CCO.O=S(=O)(O)CCO` [PENTAMIDINE ISETHIONATE], the “Ratio IC50” value in the assay on J774 [1] is recorded as 14345. This molecule also yielded an inhibition in assay [2] of 27.9%. Further, the pIC50 in assay [3] was 8.54; in the assay with J774 [4], 4.38.
Consider `CC(C)(C)OC(=O)NCC(=O)N1CCC[C@@H]1C(=O)N1[C@H](C(=O)O)[C@H]1C(=O)O`, for which the inhibition entry in assay [7] is “inactive”. Moreover, the pIC50 (in assay [3]; in the assay with J774 [4]) was under 4.00 each time.
